{
  "source": "patent US9616128B2",
  "about": "“Pharmaceutical compositions comprising paracetamol and process for preparing the same” (Troikaa Pharmaceuticals Ltd, priority 2010, dated 2017)",
  "key": {"physchem": {"experiment": "physchem", "details": "solubility of paracetamol", "procedure": "The solubility of paracetamol in various solvents, such as glycofurol, PEG, ethanol, and propylene glycol were determined by us. […] The challenge lies in tailoring the appropriate solvent system to provide injectables containing paracetamol in 166 mg/ml to 250 mg/ml so that the therapeutic dose of paracetamol (500 mg) can be delivered in 2 to 3 ml without compromising in viscosity of these injectables."}, "[1]": {"experiment": "Viscosity of paracetamol injectable solutions", "assay_type": "physicochemical", "details": "solution in glycofurol at concentration of 205 mg/ml", "procedure": "The solitary prior art in which the solution of paracetamol ranging from 60 mg/ml (6% w/v) to 150 mg/ml (15% w/v) have been prepared in glycofurol:ethanol:water (about 44:10:46 or about 4:1:4) and glycofurol: water (48:52 or about 1:1). […] 5 CPS and 14.8 CPS respectively. It is to be noted that the concentrations of the solutions reported in the said prior art is between 60 mg/ml to 150 mg/ml."}},
  "data": [
    {"smiles": "CC(=O)Nc1ccc(O)cc1", "note": "[paracetamol, p-acetylaminophenol]", "values": [
      {"measurement": "solubility", "setting": "physchem; organic solvent or mixture", "result": "~205", "unit": "mg/mL"},
      {"measurement": "solubility", "setting": "physchem; water", "result": "~14", "unit": "mg/mL"},
      {"measurement": "viscosity of the paracetamol solution", "setting": "[1]", "result": "about 57 CPS"}
    ]}
  ]
}
